“Also recorded” adds a separate entry of the source.
Experiments:
[1] = TRM-201-PK-102 safety: treatment-emergent adverse events; format: in vivo, human
Source text: The timing and frequency of all safety assessments was listed in the schedule of events (Table 19). Safety and tolerability included monitoring and recording of AEs, clinical laboratory assessments (hematology, serum chemistry, and urinalysis), vital sign measurements, 12-lead ECG assessments, and physical examination findings. […] If clinical significance was noted, the result and reason for significance were documented. Any abnormal laboratory test results (hematology, clinical chemistry, or urinalysis) or other safety assessments (e.g., ECGs, vital sign measurements), including those that worsen from baseline, felt to be clinically significant in the medical and scientific judgment of the investigator were to be recorded as AEs or SAEs.
The investigator was responsible for reporting all AEs that were observed or reported during the study, regardless of their relationship to study drug or their clinical significance. If there was any doubt as to whether a clinical observation was an AE, the event was reported. An AE was defined as any untoward medical occurrence in a subject enrolled into this study regardless of its causal relationship to study drug. Subjects were instructed to contact the investigator at any time after enrollment if any symptoms developed. A treatment-emergent AE (TEAE) was defined as any event not present before exposure to study drug or any event already present that worsens in either intensity or frequency after exposure to study drug.
All safety data were summarized. The incidence of adverse events was presented by the MedDRA system organ class and preferred term, relationship to the test article, and severity. Descriptive statistics of clinical laboratory results and vital signs were presented, as well as summaries of changes from baseline (from the Check-in visit(s)) and of clinically notable values. All AE data were presented in a data listing TEAEs were summarized overall, as well as by severity and relationship to study drug. Serious AEs and AEs leading to discontinuation of study drug were also presented in the data listings and summarized. Actual values and changes from Baseline for clinical laboratory test results, vital sign measurements, and 12-lead ECG results were summarized at each time point using descriptive statistics (number of subjects, mean, SD, median, minimum, and maximum).

[2] = target: cyclooxygenase-1 (COX-1) isoenzyme (Homo sapiens, UniProt P23219); settings: at therapeutic concentrations; listed as rofecoxib; cited from earlier work
cyclooxygenase-1 (COX-1) isoenzyme, sequence (P23219 24-599): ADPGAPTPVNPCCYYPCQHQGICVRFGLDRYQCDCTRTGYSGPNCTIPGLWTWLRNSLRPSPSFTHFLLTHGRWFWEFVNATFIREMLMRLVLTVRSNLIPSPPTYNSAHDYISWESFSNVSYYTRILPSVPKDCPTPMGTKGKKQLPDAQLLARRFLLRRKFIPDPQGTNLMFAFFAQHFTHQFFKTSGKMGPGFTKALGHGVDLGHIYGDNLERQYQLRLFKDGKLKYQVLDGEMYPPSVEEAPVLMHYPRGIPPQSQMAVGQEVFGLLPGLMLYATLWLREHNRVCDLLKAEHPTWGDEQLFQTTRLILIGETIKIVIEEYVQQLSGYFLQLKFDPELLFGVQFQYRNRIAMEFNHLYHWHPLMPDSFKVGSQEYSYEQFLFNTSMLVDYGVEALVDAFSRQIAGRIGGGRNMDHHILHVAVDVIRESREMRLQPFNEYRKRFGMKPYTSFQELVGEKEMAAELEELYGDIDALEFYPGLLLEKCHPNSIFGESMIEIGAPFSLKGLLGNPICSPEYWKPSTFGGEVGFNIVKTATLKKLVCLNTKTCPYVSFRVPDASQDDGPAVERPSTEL

[3] = TRM-201-PK-101 safety: treatment-emergent adverse events; format: in vivo, human; settings: 25 mg, 101 study
Source text: Safety and tolerability will include monitoring and recording of AEs, clinical laboratory assessments (hematology, serum chemistry, and urinalysis), vital sign measurements, 12-lead ECG assessments, and physical examination findings.
A treatment-emergent AE (TEAE) is defined as any event not present before exposure to study drug or any event already present that worsens in either intensity or frequency after exposure to study drug.
All safety data will be summarized for the PILOT portion, MAIN study, and FOOD-EFFECT sub study combined. Subjects who received 2 single doses will be counted once with all of their safety data combined. The incidence of adverse events will be presented by the MedDRA system organ class and preferred term, relationship to the test article, and severity. Descriptive statistics of clinical laboratory results and vital signs will be presented, as well as summaries of changes from baseline (from the Check-in visit(s)) and of clinically notable values.
All AE data will be presented in a data listing by study part and within the FOOD-EFFECT sub study by treatment sequence. TEAEs will be summarized overall, as well as by severity and relationship to study drug. Serious AEs and AEs leading to discontinuation of study drug will also be presented in the data listings and summarized.

In the case of CS(=O)(=O)c1ccc(C2=C(c3ccccc3)C(=O)OC2)cc1 [TRM-201, 4-[4-(methylsulfonyl)phenyl]-3-phenyl-2(5H)-furanone], the “TEAE in preferred term” value ([1]; 12.5 mg) is reported as “constipation”, the “subjects who exhibited a TEAE” value ([1]; 12.5 mg) is reported as “One” and the “TEAE in preferred term” value ([1]; 25 mg) is reported as “ear discomfort and headache”. For the same compound, the “subjects who exhibited a TEAE” value ([1]; 25 mg) was “two”, the “severity of all reported TEAE” value ([1]; 102 PK study) was “mild” and the “related TEAE, serious TEAE, TEAE leading to study discontinuation, or severe TEAE” value ([1]; 102 PK study, all doses) was “No subjects”. For the same compound, the “subjects who exhibited a TEAE, total” value ([1]; 102 PK study, all doses) was “three”, the “incidence of TEAE leading to study discontinuation” value ([1]; at any dosage) was “no incidence” and the “incidence of related TEAE” value ([1]; at any dosage) was “no incidence”. The “incidence of serious TEAE” value ([1]; at any dosage) was “no incidence”, the “inhibition of COX-1” value [2] was “does not inhibit; also recorded: not cyclooxygenase 1 (COX-1)” and the “serious TEAE or TEAE leading to discontinuation of the study” value [3] was “No subjects”. For the same compound, the “subjects observed with TEAEs” value [3] was “four”, the “subjects observed with TEAEs, share of the cohort” value [3] was 7.5% and the “subjects with TEAE related to treatment” value [3] was 2 subjects. For the same compound, the “subjects with TEAE related to treatment, share of the cohort” value [3] was 3.8%.

Source: patent US10945992B1, “Dosage forms of rofecoxib and related methods” (Tremeau Pharmaceuticals, Inc., priority 2019, dated 2021)
